From ChEMBL document CHEMBL1177776, “Novel coumarin derivatives as potential antidyslipidemic agents” (2010)

What was measured:
Format in all cases: functional
[1] = Antioxidant activity assessed as inhibition non-enzymatic reactants generated hydroxyl radical production at 100 ug/ml by spectrophotometry
[2] = Antioxidant activity assessed as inhibition non-enzymatic reactants generated superoxide anion at 20 ug/ml by spectrophotometry
Rattus norvegicus [3] = assay: Antidyslipidemic activity against triton-induced hyperlipidemia in Charles Foster rat assessed as reduction in total cholesterol level at 100 mg/kg, po after 18 hrs by spectrophotometry relative to control; set-up: scale not given: the % may be the effect or the level left
Rattus norvegicus [4] = assay: Antidyslipidemic activity against triton-induced hyperlipidemia in Charles Foster rat assessed as reduction in phospholipid level at 100 mg/kg, po after 18 hrs by spectrophotometry relative to control; set-up: scale not given: the % may be the effect or the level left
[5] = Antioxidant activity assessed as inhibition lipid peroxidation at 200 ug/ml by spectrophotometry
[6] = Antioxidant activity assessed as inhibition non-enzymatic reactants generated superoxide anion at 200 ug/ml by spectrophotometry
[7] = Antioxidant activity assessed as inhibition non-enzymatic reactants generated hydroxyl radical production at 200 ug/ml by spectrophotometry
Rattus norvegicus [8] = assay: Antidyslipidemic activity against triton-induced hyperlipidemia in Charles Foster rat assessed as reduction in triglyceride level at 100 mg/kg, po after 18 hrs by spectrophotometry relative to control; set-up: scale not given: the % may be the effect or the level left

Structure (SMILES) | inhibition [1] | inhibition [2] | Activity (Rattus norvegicus [3]) | Activity (Rattus norvegicus [4]) | inhibition [5] | inhibition [6] | inhibition [7] | Activity (Rattus norvegicus [8])
OC[C@@H](O)[C@@H](O)[C@H](O)[C@H](O)CO | 52% |  |  |  |  |  |  | 
Oc1ncnc2[nH]ncc12 |  | 80% |  |  |  |  |  | 
Cc1cc2cc(Cl)c(=O)oc2c2ccccc12 |  |  | 27% | 26% | 38% | 32% | 49% | 26%
Cc1cc(C=O)c(O)c2ccccc12 |  |  | 24% | 25% | 41% | 27% | 41% | 23%
Cc1c(C)c2c(c(C)c1O)CC[C@@](C)(CCC[C@H](C)CCC[C@H](C)CCCC(C)C)O2 | 47% |  |  |  |  |  |  | 
Cc1ccc(C)c(OCCCC(C)(C)C(=O)O)c1 [GEMFIBROZIL] |  |  | 34% | 38% |  |  |  | 35%
